In ChEMBL document CHEMBL3352707, “Antimycobacterial activity of natural products and synthetic agents: pyrrolodiquinolines and vermelhotin as anti-tubercular leads against clinical multidrug resistant isolates of Mycobacterium tuberculosis” (Eur J Med Chem, 2015):
In brackets after ≈: the same amount, converted by molar mass.

Each compound was assayed on Mycobacterium tuberculosis (assay: Antimycobacterial activity against Mycobacterium tuberculosis H37Ra after 7 days by microplate Alamar blue assay). Conditions: 168 h.
Type: functional

SMILES | MIC [µg/mL]
CC1(C)CC(=O)C2=C(C1)Oc1ccc(Cl)cc1C2c1c(C(=O)O)[nH]c2ccccc12 (stereo not drawn) | 100 (≈ 237 µM)
CC1(C)CC(=O)C2=C(C1)Oc1ccc3ccccc3c1C2c1c[nH]c2ccccc12 (stereo not drawn) | 25 (≈ 63.5 µM)
O=C1CCCC2=C1C(c1c[nH]c3ccccc13)c1ccccc1O2 (stereo not drawn) | > 100
O=C1CCCC2=C1C(c1c[nH]c3ccccc13)c1ccc(O)cc1O2 (stereo not drawn) | > 100
COc1ccc2c(c1)OC1=C(C(=O)CCC1)C2c1c[nH]c2ccccc12 (stereo not drawn) | > 100
O=C1CCCC2=C1C(c1c[nH]c3ccccc13)c1cc(Cl)ccc1O2 (stereo not drawn) | 50 (≈ 143 µM)
O=C1CCCC2=C1C(c1c[nH]c3ccccc13)c1cc(Br)ccc1O2 (stereo not drawn) | 50 (≈ 127 µM)
COc1ccc2c(c1)C(c1c[nH]c3ccccc13)C1=C(CCCC1=O)O2 (stereo not drawn) | 100 (≈ 290 µM)
O=C1CCCC2=C1C(c1c[nH]c3ccccc13)c1cccc(O)c1O2 (stereo not drawn) | > 100
COc1ccc(Br)c2c1OC1=C(C(=O)CCC1)C2c1c[nH]c2ccccc12 (stereo not drawn) | > 100
COc1ccc(Br)c2c1OC1=C(C(=O)CC(C)(C)C1)C2n1nnc2ccccc21 (stereo not drawn) | > 100
CC1(C)CC(=O)C2=C(C1)Oc1ccc(Br)cc1C2n1nnc2ccccc21 (stereo not drawn) | > 100
CC1(C)CC(=O)C2=C(C1)Oc1c(O)cccc1C2n1nnc2ccccc21 (stereo not drawn) | > 100
O=C1CCCC2=C1C(n1nnc3ccccc31)c1cc(Cl)ccc1O2 (stereo not drawn) | > 100
O=C1CCCC2=C1C(n1nnc3ccccc31)c1cc(Br)ccc1O2 (stereo not drawn) | > 100
COc1ccc2c(c1)C(n1nnc3ccccc31)C1=C(CCCC1=O)O2 (stereo not drawn) | > 100
COc1ccc(Br)c2c1OC1=C(C(=O)CCC1)C2n1nnc2ccccc21 (stereo not drawn) | > 100
CN1C(=O)C(C2C3=C(CC(C)(C)CC3=O)Oc3ccccc32)C(=O)N(C)C1=O (stereo not drawn) | > 100
CN1C(=O)C(C2C3=C(CC(C)(C)CC3=O)Oc3ccc(Cl)cc32)C(=O)N(C)C1=O (stereo not drawn) | > 100
CN1C(=O)C(C2C3=C(CC(C)(C)CC3=O)Oc3ccc(Br)cc32)C(=O)N(C)C1=O (stereo not drawn) | > 100
COc1ccc2c(c1)C(C1C(=O)N(C)C(=O)N(C)C1=O)C1=C(CC(C)(C)CC1=O)O2 (stereo not drawn) | > 100

SMILES | MIC [µg/mL]
CN1C(=O)C(C2C3=C(CC(C)(C)CC3=O)Oc3ccc([N+](=O)[O-])cc32)C(=O)N(C)C1=O (stereo not drawn) | > 100
CN1C(=O)C(C2C3=C(CCCC3=O)Oc3ccc(Cl)cc32)C(=O)N(C)C1=O (stereo not drawn) | > 100
CN1C(=O)C(C2C3=C(CCCC3=O)Oc3ccc(Br)cc32)C(=O)N(C)C1=O (stereo not drawn) | > 100
CN1C(=O)C(C2C3=C(CCCC3=O)Oc3ccc([N+](=O)[O-])cc32)C(=O)N(C)C1=O (stereo not drawn) | > 100
COc1ccc2c(c1)C(C1=C(O)CCCC1=O)C1=C(CCCC1=O)O2 (stereo not drawn) | > 100
COC(=O)C1=C(C)Oc2c(cc(C(C)(C)C)cc2C(C)(C)C)[C@@H]1[C@H](C(C)=O)C(=O)OC | > 100
COC(=O)C1=C(C)Oc2ccc(Cl)cc2[C@@H]1[C@H](C(C)=O)C(=O)OC | > 100
COC(=O)C1=C(C)Oc2ccc(Br)cc2[C@@H]1[C@H](C(C)=O)C(=O)OC | > 100
COC(=O)C1=C(C)Oc2ccc(OC)cc2[C@@H]1[C@H](C(C)=O)C(=O)OC | > 100
COC(=O)C1=C(C)Oc2c(O)cccc2[C@@H]1[C@H](C(C)=O)C(=O)OC | > 100
O=C(c1ccccc1)c1cc2ccccc2oc1=O | 50 (≈ 200 µM)
CC(=O)c1cc2cc(Br)ccc2oc1=O | > 100
CCC(N)C(=O)O (racemic) | > 100
C[C@@H]1[C@H](O)[C@@H](C)/C=C/C=C/C=C/C=C/C=C/C=C/C=C/[C@H](O[C@@H]2O[C@H](C)[C@@H](O)[C@H](N)[C@@H]2O)C[C@@H]2O[C@](O)(C[C@@H](O)C[C@@H](O)[C@H](O)CC[C@@H](O)C[C@@H](O)CC(=O)O[C@H]1C)C[C@H](O)[C@H]2C(=O)O [AMPHOTERICIN B] | > 100
O=C(OC[C@@H](O)[C@@H](O)COC(=O)/C(Cc1ccc(O)cc1)=N\O)/C(Cc1ccc(O)cc1)=N\O [ASPERGILLUSOL A] | > 100
COC(=O)[C@]1(Cc2ccc3c(c2)C[C@H](O)C(C)(C)O3)OC(=O)C(O)=C1c1ccc(O)cc1 [BUTYROLACTONE V] | > 100
Cc1cc(O)c2c(c1O)C(=O)c1cc(O)cc(O)c1C2=O [CATENARIN] | 100 (≈ 349 µM)
O=c1cc(CO)occ1O [KOJIC ACID] | > 100
COc1cc(O)cc2c1C(=O)c1c(O)cc(C)cc1C2=O [QUESTIN] | 50 (≈ 176 µM)
COC(=O)[C@@]12Oc3ccc(-c4ccc5c(c4O)C(O)C4=C(O)C[C@H](C)[C@@H](O)[C@]4(C(=O)OC)O5)c(O)c3C(=O)C1=C(O)C[C@H](C)[C@H]2O (stereo partly drawn) [SECALONIC ACID D] | > 100
NCCS(=O)(=O)O [TAURINE] | > 100

What follows are compounds tested on MRC5 (assay: Cytotoxicity against human MRC5 cells at 50 ug/ml by MTT assay). Conditions: not given.
Type: cell-based

SMILES | Activity
COc1cccc2c1C(=O)c1c(O)c3c(c(O)c1C2=O)C[C@@](O)(C(=O)CO)C[C@@H]3O[C@H]1C[C@H](N)[C@H](O)[C@H](C)O1 [DOXORUBICIN] | Non-toxic
